ChEMBL document CHEMBL6182913, “Design of Potent Small-Molecule Stimulator of Interferon Gene Inhibitor and Stimulator of Interferon Gene Mutant-Specific Degrader” (J Med Chem, 2025)
The source made the active and inactive calls. The rule behind the calls is not given here.

How the values were obtained:
[1] = biological target: T1, Stimulator of interferon genes protein (Homo sapiens, UniProt Q86WV6, G230A/R293Q/R71H); assay: Inhibition of diABZI-induced STING HAQ mutant transfected in human THP1-Blue ISG cells preincubated with compound for 6 hrs followed by diABZI addition and measured after 18 hrs by QUANTI-Blue based microplate reader analysis; type: cell-based
[2] = AUC in mouse at 20 mg/kg, po by LC-MS/MS analysis; type: ADME, organism-based; conditions: in vivo
[3] = biological target: T2, Stimulator of interferon genes protein (Homo sapiens, UniProt Q86WV6); assay: Induction of STING S154 mutant degradation in human THP-1 cells incubated for 24 hrs by Western blotting analysis; type: cell-based
Target sequence in this assay (Q86WV6 whole entry, looked up, change not shown): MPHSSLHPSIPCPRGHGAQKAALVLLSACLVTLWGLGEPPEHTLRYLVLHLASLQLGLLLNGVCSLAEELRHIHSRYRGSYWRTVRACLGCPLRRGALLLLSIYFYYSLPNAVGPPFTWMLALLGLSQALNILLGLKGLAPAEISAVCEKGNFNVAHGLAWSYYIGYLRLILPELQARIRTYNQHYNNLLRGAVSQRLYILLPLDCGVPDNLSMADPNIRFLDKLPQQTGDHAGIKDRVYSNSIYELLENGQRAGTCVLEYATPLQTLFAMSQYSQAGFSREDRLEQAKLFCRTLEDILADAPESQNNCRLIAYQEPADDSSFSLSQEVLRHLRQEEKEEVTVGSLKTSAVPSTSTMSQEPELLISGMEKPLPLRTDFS

[4] = test system: Stimulator of interferon genes protein (Homo sapiens), Q86WV6 [UNDEFINED MUTATION]; assay: Induction of STING M155 mutant degradation in human THP-1 cells at 0.5 uM preincubated with rapamycin for 2 hrs followed by compound addition and measured after 14 hrs by Western blotting analysis; type: cell-based
[5] = test system: Stimulator of interferon genes protein (Homo sapiens), Q86WV6 [UNDEFINED MUTATION]; assay: Induction of STING S154 mutant degradation in human THP-1 cells at 1 uM incubated for 48 hrs by Western blotting analysis; type: cell-based
[6] = Metabolic stability in mouse liver microsomes assessed as half life at 10 uM in presence of NADPH by LC-MS/MS analysis; type: ADME, Microsome
[7] = biological target: T3, Stimulator of interferon genes protein (Mus musculus) (UniProt Q3TBT3); assay: Inhibition of STING in mouse BMDM cells assessed as inhibition of poly(I:C) -induced IFN-beta release at 0.05 to 0.5 uM pretreated with compound for 6 hrs followed by poly(I:C) addition and measured after 18 hrs by ELISA; type: cell-based; conditions: dose 0.05-0.5 µM, time 24.0 hrs
T3 sequence (whole entry): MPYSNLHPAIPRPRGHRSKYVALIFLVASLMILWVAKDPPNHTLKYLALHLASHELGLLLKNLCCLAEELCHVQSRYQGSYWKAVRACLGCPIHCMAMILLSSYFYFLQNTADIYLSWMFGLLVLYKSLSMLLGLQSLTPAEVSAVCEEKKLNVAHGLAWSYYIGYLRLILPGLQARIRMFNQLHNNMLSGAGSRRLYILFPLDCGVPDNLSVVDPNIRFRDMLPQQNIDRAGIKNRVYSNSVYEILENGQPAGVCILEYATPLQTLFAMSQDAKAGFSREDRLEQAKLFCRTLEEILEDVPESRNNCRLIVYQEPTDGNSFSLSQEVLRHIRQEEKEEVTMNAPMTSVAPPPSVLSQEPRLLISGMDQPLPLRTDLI

[8] = biological target: T3, Stimulator of interferon genes protein (Mus musculus); assay: Inhibition of STING in mouse BMDM cells assessed as inhibition of cGAMP-induced CXCL-10 release at 0.05 to 0.5 uM pretreated with compound for 6 hrs followed by cGAMP addition and measured after 18 hrs by ELISA; type: cell-based; conditions: dose 0.05-0.5 µM, time 24.0 hrs
[9] = biological target: T2, Stimulator of interferon genes protein; assay: Inhibition of STING activation in human THP1-Blue ISG cells assessed as inhibition of c-GAMP-induced STING oligomerization at 0.1 to 1 uM preincubated with compound for 6 hrs followed by cGAMP addition and measured after 3 hrs by Western blotting analysis; type: cell-based; conditions: dose 0.1-1 µM, time 9.0 hrs
Target sequence in this assay (Q86WV6 whole entry): as the sequence (Q86WV6 whole entry, looked up, change not shown) above

[10] = Metabolic stability in human plasma assessed as half life in presence of NADPH by LC-MS/MS analysis; type: ADME, cell-free
[11] = test system: Stimulator of interferon genes protein (Homo sapiens), Q86WV6 [UNDEFINED MUTATION]; assay: Induction of STING M155 mutant degradation in human THP-1 cells at 1 uM preincubated with MLN4924 for 2 hrs followed by compound addition and measured after 22 hrs by Western blotting analysis; type: cell-based
[12] = test system: Stimulator of interferon genes protein (Homo sapiens), Q86WV6 [UNDEFINED MUTATION]; assay: Induction of STING M155 mutant degradation in human THP-1 cells by measuring maximum efficacy at 0.01 to 10 uM incubated for 24 hrs by Western blotting analysis relative to control; type: cell-based; conditions: dose 0.01-10 µM
[13] = biological target: T2, Stimulator of interferon genes protein; assay: Inhibition of STING in human THP-1 cells assessed as inhibition of cGAMP-induced IFN-beta release at 0.05 to 0.5 uM pretreated with compound for 6 hrs followed by cGAMP addition and measured after 18 hrs by ELISA; type: cell-based; conditions: dose 0.05-0.5 µM, time 24.0 hrs
Target sequence in this assay (Q86WV6 whole entry): as the sequence (Q86WV6 whole entry, looked up, change not shown) above

[14] = biological target: T1, Stimulator of interferon genes protein; assay: Inhibition of cGAMP-induced STING HAQ mutant transfected in human THP1-Blue ISG cells preincubated with compound for 6 hrs followed by cGAMP addition and measured after 18 hrs by QUANTI-Blue based microplate reader analysis; type: cell-based
[15] = biological target: T2, Stimulator of interferon genes protein; assay: Inhibition of STING activation in human THP1-Blue ISG cells assessed as reduction in STING dimer level at 0.1 to 1 uM incubated for 9 hrs by Western blotting analysis; type: cell-based; conditions: dose 0.1-1 µM
Target sequence in this assay (Q86WV6 whole entry): as the sequence (Q86WV6 whole entry, looked up, change not shown) above

Sequence of Stimulator of interferon genes protein (Homo sapiens), Q86WV6 [UNDEFINED MUTATION] (Q86WV6 whole entry, looked up, change not shown): as the sequence (Q86WV6 whole entry, looked up, change not shown) above
T1 sequence (Q86WV6 whole entry R71H/G230A/R293Q): as the sequence (Q86WV6 whole entry, looked up, change not shown) above, with R71H, G230A, R293Q counted along it

IC50 [1]: 0.12 µM
AUC [2]: 2.02 µg·h/mL
DC50 [3]: 0.31 µM
Activity [4]: Active
half-life at 10 µM [6]: > 1 h
inhibition [7]: inactive
inhibition [8]: Active
inhibition [9]: Active
half-life [10]: > 4 h
Activity [11]: Active
Emax [12]: 92%
inhibition [13]: Active
IC50 [14]: 0.11 µM
inhibition [15]: Active
SMILES: COc1ccc2c(c1)C(=O)N(c1ccc(C(C)(C)C)c(F)c1)C(c1cc3cc(-c4ccc(C(=O)Nc5ccc(O)c(NS(C)(=O)=O)c5)cc4)ccc3o1)C2C(N)=O (stereo not given)
Activity [5]: Active; Compound Showed Maximum Degradation
